Reference: patent US20240226049A1, “METHODS OF TREATMENT USING BEMPEDOIC ACID” (Esperion Therapeutics, Inc., priority 2023, published 2024)

Tested on: statin-intolerant patients with or at high risk of CVD
Assay: CLEAR OUTCOMES trial (Example 1): adverse events and safety laboratory findings
Assay type: in vivo, human
Source text: The CLEAR OUTCOMES trial was a randomized, placebo-controlled, double-blind trial that enrolled patients at 1250 sites in 32 countries. An independent Data Monitoring Committee reviewed safety and efficacy data during the trial.
Patients 18 to 85 years of age were eligible for enrollment if they met either of two criteria for increased cardiovascular risk, a prior cardiovascular event (secondary prevention) or clinical features that placed them at high risk for a cardiovascular event (primary prevention). (Nicholls S. Lincoff A M, Bays H E, et al. Rationale and design of the CLEAR-outcomes trial: Evaluating the effect of bempedoic acid on cardiovascular events in patients with statin intolerance. Am Heart J. 2021 May; 235:104-112) All patients provided written informed consent. Patients had to report statin intolerance due to an adverse effect that started or increased during statin therapy and resolved or improved after statin therapy was discontinued. Patients could be enrolled if they tolerated a very low average daily statin dose (e.g., an average daily dose of rosuvastatin <5 mg, atorvastatin <10 mg, simvastatin <10 mg, lovastatin <20 mg, pravastatin <40 mg, fluvastatin <40 mg, or pitavastatin <2 mg). Other lipid-lowering therapies were permitted, including ezetimibe, niacin, bile acid resins, fibrates, and/or proprotein convertase subtilisin kexin type 9 (PCSK9) inhibitors. Full inclusion and exclusion criteria are provided in Nicholls et al. (Am Heart J. 2021).
Eligible patients entered a 4-week run-in period during which patients were treated with single-blind placebo. If patients were intolerant to placebo treatment or if adherence was <80% by tablet count, they were not eligible for randomization. Patients who successfully completed the run-in period were randomly assigned in a 1:1 ratio to receive bempedoic acid at an oral dose of 180 mg or matching placebo, administered daily. Beginning 6 months after enrollment, the central laboratory notified the investigator if the patient's LDL-cholesterol level was ≥25% higher than baseline. These patients were counseled on healthy dietary guidelines and reminded to take all lipid-regulating medications. If repeat testing confirmed that LDL-cholesterol value met the threshold criteria, the provider could adjust the lipid-lowering treatment regimen per standard of care and local guidelines.

[1] = at any visit, repeated and confirmed, N = 7001

Question: `CC(C)(CCCCCC(O)CCCCCC(C)(C)C(=O)O)C(=O)O` [Bempedoic Acid, Bempedoic acid] was tested. Which “New onset diabetes in patients with normoglycemia at baseline, %” value (180 mg oral daily) did it give?
Answer: 5.5%

Question: What about the “New onset diabetes in patients with pre-diabetes at baseline, %” value (180 mg oral daily) of the same compound?
Answer: 19.5%

Question: And the “Adjudicated tendon rupture, %” value (180 mg oral daily, N = 7001)?
Answer: 1.2%

Question: And the “Adverse event leading to drug discontinuation, %” value (180 mg oral daily, N = 7001)?
Answer: 11.0%

Question: What about the “Any muscle disorder, %” value (180 mg oral daily, N = 7001) of the same compound?
Answer: 15.0%

Question: What about the “Any treatment emergent adverse event, %” value (180 mg oral daily, N = 7001) of the same compound?
Answer: 86.3%

Question: And the “Atrial fibrillation, %” value (180 mg oral daily, N = 7001)?
Answer: 3.3%

Question: And the “Cholelithiasis, %” value (180 mg oral daily, N = 7001)?
Answer: 2.2%

Question: And the “Discontinuation of treatment due to myalgia, %” value (180 mg oral daily, N = 7001)?
Answer: 1.8%

Question: What about the “Elevated hepatic enzymes, %” value (180 mg oral daily, N = 7001) of the same compound?
Answer: 4.5%

Question: What about the “Gout, %” value (180 mg oral daily, N = 7001) of the same compound?
Answer: 3.1%

Question: What about the “Hypoglycemia, %” value (180 mg oral daily, N = 7001) of the same compound?
Answer: 4.3%

Question: And the “Malignancies, %” value (180 mg oral daily, N = 7001)?
Answer: 4.7%

Question: And the “Metabolic acidosis, %” value (180 mg oral daily, N = 7001)?
Answer: 0.2%

Question: And the “Myalgia, %” value (180 mg oral daily, N = 7001)?
Answer: 5.6%

Question: And the “Neurocognitive disorders, %” value (180 mg oral daily, N = 7001)?
Answer: 0.8%

Question: What about the “Serious treatment emergent adverse event, %” value (180 mg oral daily, N = 7001) of the same compound?
Answer: 25.4%

Question: And the “Tendinopathies, %” value (180 mg oral daily, N = 7001)?
Answer: 1.7%

Question: What about the “Change from baseline in creatinine levels” value (after 6 months) of the same compound?
Answer: 0.05 ± 0.2 mg/dL

Question: And the “Change from baseline in uric acid levels” value (after 6 months)?
Answer: 0.76 ± 1.2 mg/dL

Question: What about the “Creatine kinase levels >5x ULN (repeated and confirmed), %” value (at any visit, N = 7001) of the same compound?
Answer: 0.1%

Question: And the “Creatine kinase levels >5x ULN (single occurrence), %” value (at any visit, N = 7001)?
Answer: 0.6%

Question: What about the “Alanine aminotransferase level >3 times ULN, %” value [1] of the same compound?
Answer: 1.2%

Question: What about the “Aspartate aminotransferase level >3 times ULN, %” value [1] of the same compound?
Answer: 1.1%

Question: And the “Premature discontinuation of study drug” value (bempedoic acid-treated patients, full population)?
Answer: 29.1%

Question: And the “Worsening hyperglycemia, %” value (in patients with diabetes at baseline)?
Answer: 22.7%

Question: What about the “New onset diabetes in patients without diabetes at baseline, %” value (investigator-reported, 180 mg oral daily) of the same compound?
Answer: 16.1%

Question: And the tolerability of treatment (rates of discontinuation for any reason similar to placebo)?
Answer: well tolerated
